These results are taken from article PMC9500544, “Anti-Trichomonas gallinae activity of essential oils and main compounds from Lamiaceae and Asteraceae plants” (Frontiers in Veterinary Science, 2022).

Series [1] deals with Trichomonas gallinae trophozoites. Nature of the series: Anti-trichomonal (AT) activity in vitro, MTT reduction assay on trophozoites. The series is classed as cell-based. The conditions noted are these: for IC50: Trichomonas gallinae, read-out: T. gallinae (IC50), concentration needed to produce 50% trophozoite mortality; for AT activity against T. gallinae (in words): no concentration stated. The method, then: The AT activity assay was performed using round bottom microwell plates in quadruplicate. Each well had 150 μl of T. gallinae trophozoites in Trypticase-Yeast Extract-Maltose medium (TYM) with 10% fetal calf serum (Sigma, Madrid, Spain) at 500.000 trophozoites/ml ([29]). EOs and pure compounds were solved in DMSO (Sigma, Madrid, Spain) (<1% final concentration). […] Trophozoite viability was analyzed using the modified MTT colorimetric assay method as previously described in literature ([29]). Briefly, after incubating the plate for 24 h at 37°C with the EOs and compounds to be tested, the plates were centrifuged at 750 x g, the medium was eliminated and 100 μl of a solution of MTT (Sigma, Madrid, Spain) (1.25 μg/ml) and PMS (Sigma, Madrid, Spain) (0.1 μg/ml) in PBS (Sigma, Madrid, Spain) was added to each well. The plate was incubated for 45 min in dark conditions to allow the reduction of MTT to formazan salts. Prior to reading, 100 μl of DMSO was added to each well to dissolve the formazan crystals. The plate was read in a spectrophotometer using a wavelength of 570 nm.
The percentage of AT activity was calculated as growth inhibition using the following formula:
% AT = 100-[(Ap-Ab)÷(Ac-Ab)]×100
Where Ap is the absorbance of the tested product, Ab the absorbance of the blank and Ac the absorbance of the control wells (culture without treatment).
Pure compounds were assayed using the same method described above, although the concentrations tested were 100, 75, 50, 25, 10, and 1 μg/ml. Metronidazole (Acros Organics, Madrid Spain) was used as a reference drug for antitrichomonal activity.
IC50 (μg/ml) reflects the dose needed to produce 50% mortality of T. gallinae trophozoites.
(§1) IC50 anti-trichomonal activity and CC50 cytotoxic activity were determined from the dose-response experiment, employing a linear regression analysis (% cell viability on log dose).

A short description of the next series: in vitro. It is filed as cell-based. How it is done:
(§2) African green monkey kidney cells (Vero cells) were grown in Dulbecco's modified Eagle's minimal essential medium (DMEM, Avantor, Llinars del Vallès, Barcelona) supplemented with 10% fetal calf serum (Sigma, Madrid, Spain) and 1% penicillin/streptomycin (Fisher Scientific, Madrid, Spain) at 37°C under a humidified atmosphere of 5% CO2/95% air.
(§3) Cells seeded in 96-well flat-bottom microplates with 100 μL medium per well (initial densities 10^4 cells per well) were exposed for 48 h to serial dilutions of the test compounds in DMSO (<1% final concentration). Cell viability was analyzed by the MTT colorimetric assay method, and the purple-colored formazan precipitate was dissolved with 100 μL of DMSO ([30]).
as §1

Another series has as its system Vero cells. Nature of the series: in vitro. It is filed as cell-based. The conditions noted are these: pure compounds; for Cytotoxic activity on Vero cells (in words): up to 100 μg/ml, 48 h; for Vero cells (CC50), concentration needed to produce 50% Vero cell mortality: 48 h exposure, interval in parentheses. How it is done: as §2, §3, §1
For series [2] the following is noted: cited from earlier work.
Where [3] appears, read: pure compounds, 24 h incubation, interval in parentheses.
[4] abbreviates: pure compounds, 48 h exposure, interval in parentheses, read-out: Vero cells (CC50), concentration needed to produce 50% Vero cell mortality.
Setting [5] is: SI = CC50 (Vero cells)/IC50 (T. gallinae).

In brackets after ≈: the same amount, converted by molar mass. Like-named read-outs stand apart in the source and are kept apart here.

With `Cc1ccc(C(C)C)cc1O` [Carvacrol], the IC50 in series [1] (setting [3]) was more than 100 mg/L. The CC50 in the series “in vitro” (setting [4]) is more than 100 mg/L.
As for `C=C1CCC2CC1C2(C)C` (stereo not drawn) [β-pinene], in series [1] (setting [3]), the IC50 is 29.6 mg/L (≈ 217 µM). The CC50 in the series “in vitro” (setting [4]) was 88.2 mg/L (≈ 647 µM).
Consider `C=C1CC/C=C(\C)CC[C@@H]2[C@@H]1CC2(C)C` [β-caryophyllene], for which the IC50 in series [1] (setting [3]) was determined as 86.1 mg/L (≈ 421 µM). In addition, in series [1] (pure compounds), the “AT activity against T. gallinae (in words)” value (shortened to “AT activity”) is given as “slight activity”. Moreover, in the series on Vero cells, the “Cytotoxic activity on Vero cells (in words)” value (shortened to “Cytotoxic activity”) was “slightly toxic”. Further, in “in vitro” (setting [4]), the CC50 came out at 60.8 mg/L (≈ 298 µM).
In the case of `CC12CCC(CC1)C(C)(C)O2` [1,8 cineole], in series [1] (setting [3]), the IC50 was more than 100 mg/L. Besides, the CC50 at 48 h in “in vitro” (African green monkey) was more than 100 mg/L.
For `CC1=CCC(O)(C(C)C)CC1` (stereo not shown) [4-terpinenol], the “SI, Selectivity index” value in series [1] (setting [5]) is on record as more than 2.4. In addition, the IC50 in series [1] (setting [3]) came out at 41.5 mg/L (≈ 269 µM). In the series “in vitro” (setting [4]), the CC50 is more than 100 mg/L.
As to `C=CC(C)(CCC=C(C)C)OC(C)=O` (stereo not shown) [Linalyl acetate], in series [1], the “SI, Selectivity index” value was more than 3.1. In addition, in series [1] (24 h), the IC50 is 32.2 mg/L. The compound further gave a CC50 in “in vitro” of more than 100 mg/L.
In the case of `Cc1ncc([N+](=O)[O-])n1CCO` [Metronidazole, reference compound], the IC50 in series [1] (setting [3]) turned out to be 1 mg/L (≈ 5.84 µM). This compound came in with a CC50 at 48 h in the series “in vitro” (African green monkey) of more than 100 mg/L.
For the compound `CC1=CCC(C(C)C)=CC1` [γ-terpinene], the “SI, Selectivity index” value in series [1] (setting [5]) is recorded as more than 2.3. Further, in series [1] (setting [3]), the IC50 came out at 43.8 mg/L (≈ 321 µM). Also, the CC50 at 48 h in “in vitro” (setting [4]) is more than 100 mg/L.
Take `C=C1CC[C@H]2O[C@]2(C)CC[C@@H]2[C@@H]1CC2(C)C` [Caryophyllene oxide]: the “AT activity” value in series [1] (pure compounds) is on record as “slight activity”. Further, in series [1] (setting [3]), the “T. gallinae (IC50), concentration needed to produce 50% trophozoite mortality” value is given as “≈100 μg/ml”. Further, the “Vero cells (CC50), concentration needed to produce 50% Vero cell mortality” value (from here on “Vero cells … to produce 50% Vero cell mortality”) with Vero cells is more than 100 mg/L.
`Cc1ccc(C(C)C)cc1` [p-cymene]: in series [1] (setting [5]), the “SI, Selectivity index” value is more than 1.7. Also, the IC50 in series [1] (setting [3]) was determined as 59.7 mg/L (≈ 445 µM). Moreover, the CC50 in the series “in vitro” (setting [4]) was more than 100 mg/L.
On to `C=CC(C)(O)CCC=C(C)C` (stereo not shown) [Linalool], for which, in series [1] (setting [3]), the IC50 was more than 100 mg/L. For the same compound, the “AT activity” value in series [1] (pure compounds) is “not an active AT compound”. Moreover, in “in vitro” (setting [4]), the CC50 was more than 100 mg/L.
With `CC1=CC[C@@H](C(C)(C)O)CC1` [α-terpineol], in series [1] (setting [3]), the IC50 was more than 100 mg/L. Besides, in “in vitro” (setting [4]), the CC50 was more than 100 mg/L.
As for `Cc1ccc(C(C)C)c(O)c1` [Thymol], the IC50 in series [1] (setting [3]) worked out at 38.4 mg/L (≈ 256 µM). The same compound yielded a CC50 at 48 h in “in vitro” (African green monkey) of more than 100 mg/L.
Take α and β thujone: in series [2], the “Neurotoxicity (in words)” value is “potent neurotoxic substances”. For the same compound, the “T. gallinae (IC50), concentration needed to produce 50% trophozoite mortality” value in series [1] (setting [3]) is recorded as 17.3 (11.3–26.3) μg/ml. Besides, in the series on Vero cells, the “Cytotoxic activity” value is recorded as “did not show cytotoxic effect” and the “Vero cells … to produce 50% Vero cell mortality” value was more than 100 mg/L.
In the case of `C=C1C2CCC(C2)C1(C)C` (stereo not shown) [Camphene], the IC50 in series [1] (setting [3]) came out at 24 mg/L (≈ 176 µM). The CC50 in the series “in vitro” (setting [4]) was determined as 74.8 mg/L (≈ 549 µM).
For `CC1(C)C2CCC1(C)C(O)C2` (stereo not shown) [Borneol], the IC50 in series [1] (setting [3]) is more than 100 mg/L. In “in vitro” (African green monkey), this compound yielded a CC50 at 48 h of more than 100 mg/L.
On to `CC12CCC(CC1=O)C2(C)C` (stereo not shown) [Camphor], for which the IC50 in series [1] (setting [3]) was more than 100 mg/L. The compound also gave a CC50 at 48 h in the series “in vitro” (African green monkey) of more than 100 mg/L.
Take `CC1(C)C(=O)[C@@]2(C)CCC1C2` [D-fenchone]: in series [1] (setting [3]), the “T. gallinae (IC50), concentration needed to produce 50% trophozoite mortality” value is 61.9 (54.3–70.6) μg/ml. Moreover, the “Vero cells … to produce 50% Vero cell mortality” value with Vero cells is more than 100 mg/L.
Regarding `CC1=CCC2CC1C2(C)C` (stereo not drawn) [α-pinene], the IC50 in series [1] (setting [3]) is 44.2 mg/L (≈ 324 µM). Besides, the “Cytotoxic activity” value in the series with Vero cells is given as “slightly toxic”. In the series “in vitro” (African green monkey), this compound had a CC50 at 48 h of 88.9 mg/L (≈ 653 µM).
